Reference: EP4501920A1, “NOVEL PYRAZOLE DERIVATIVES” (Aptabio Therapeutics Inc., priority 2022, dated 2023)

Columns and labels:
[1] = system: NHLF (normal human lung fibroblast); test: ROS production induced by PMA in NHLF cells; type: cell-based; settings: FIG. 1
Excerpt: (§1) In order to confirm the effect of the compounds of Synthetic examples on ROS production from fibroblasts and specific substrate cells, ROS production was induced by stimulation of PMA (phorbol 12-myristate 13-acetate), TGF-β1, palmitate or high concentration-glucose, or the like, in HL-60 cells differentiated into neutrophil cells by DMSO treatment, NHLF (normal human lung fibroblast, Lonza), LX-2 (human hepatic stellate cells, Sigma), ARPE19 (human retinal pigment epithelial cell, ATCC), and KEL-FIB (Keloid fibroblast, ATCC) cells, and under this condition, the inhibitory effect of ROS production of the compounds of Synthetic examples was observed.
(§2) The NHLF (normal human lung fibroblast, Lonza), LX-2 (human hepatic stellate cells, Sigma), ARPE19 (human retinal pigment epithelial cell, ATCC), KEL-FIB (keloid fibroblast, ATCC) cells were suspended in a culture medium containing 10% FBS and aliquoted on a 96 well plate and then cultured under the condition of 5% CO2, 37°C for 24 hours. After pre-treating the compounds of Synthetic examples at a concentration of 10, 20, 30, 40, 60 and 80 µM for 30 minutes to 1 hour, the ROS stimulus was treated to each well containing the cells and drug. After additional culturing for 48 hours, the ROS production level was confirmed using L-012 or DCF-DA.

IL-1β = test: Expression of IL-1β induced by LPS in human-derived fibroblasts (RT-PCR); type: cell-based; settings: LPS (1 µg/ml) 6 hours; 10 µM; FIG. 8 (LX2, NHLF, ARPE19 and KEL-Fib cells)
Method: After inoculating 2×10^5 cells in a 6 well plate and then culturing for 24 hours, they were further cultured in a serum-free culture solution for 16 hours and then the Synthetic example 1 Compound was pre-treated for 20 minutes according to each condition and inflammation reaction was induced with LPS (1 µg/ml) for 6 hours. The expression of IL-1β was confirmed using RT-PCR. Total RNA was separated from the cells using RNeasy mini kit (Qiagen), and for the separated RNA 2ug, cDNA was synthesized using PrimeScript™ II 1st strand cDNA synthesis kit (TaKaRa) and then PCR was performed with AccuPower® PCR PreMix (Bioneer) to amplify genes. The nucleotide sequences for target primers are as follows. IL-1β (forward: 5'-[…]-3'(SEQ ID NO: 1), reverse: 5'-[…]-3'(SEQ ID NO: 2)); GAPDH (forward: 5'-[…]-3'(SEQ ID NO: 3), reverse: 5'-[…]-3'(SEQ ID NO: 4)); β-actin (forward: 5'-[…]-3'(SEQ ID NO: 5), reverse: 5'-[…]-3'(SEQ ID NO: 6)). The PCR product was confirmed by electrophoresis in 1.5% agarose gel.

IL-6 = test: Expression of IL-6 in pancreatic cancer associated fibroblasts (ELISA); type: cell-based, human; settings: P.CAF cells; compounds 10, 20, 30, 40, 60 and 80 µM for 48 hours; FIG. 5
Method: (§3) In order to confirm the effect of the compounds of Synthetic examples of the present invention on inflammation reaction in cancer associated fibroblasts, whether the expression of IL6 and IL8 was inhibited by the compounds of Synthetic examples in pancreatic cancer associated fibroblasts (PCAF) was observed.
(§4) After inoculating 1.5×10^5 cells in a 6 well plate and then culturing in P.CAF complete media for 48 hours, the compounds of Synthetic examples were treated by 10, 20, 30, 40, 60 and 80 µM for 48 hours according to each condition, and then the expression of IL-6 and IL-8 was confirmed by performing ELISA with Quantkine ELISA kit (R&D systems) as follows.
(§5) 100 µl of the culture solution in which the compounds of Synthetic examples were treated for 48 hours was added to the microplate strip for analysis including a 100 µl assay diluent and left at a room temperature for 2 hours and then the contents were removed, and then it was washed with 400 µl wash buffer 4 times. 200 µl of a human IL-6 or IL-8 conjugate was added and left at a room temperature for 2 hours and then the contents were removed, and then it was washed with 400 µl wash buffer 4 times. 200 µl of substrate solution was added and left at a room temperature for 20 minutes and then 50 µl of stop solution was added, and the absorbance at a wavelength of 450nm was measured within 30 minutes to confirm the expression level of IL-6 and IL-8.

[2] = system: LX-2 (human hepatic stellate cells); test: ROS production induced by PMA in LX-2 cells; type: cell-based; settings: FIG. 1
Excerpt: as §1, §2

αSMA = test: Expression of αSMA induced by TGF-β1 (immunocytochemistry); type: cell-based, human; settings: TGF-β1 (10 ng/ml), 10 µM, FIG. 4
Excerpt: In order to confirm whether the compounds of Synthetic examples of the present invention affect differentiation of fibroblasts into myofibroblasts, the inhibitory effect of the compounds of Synthetic examples on increase in expression of αSMA (biomarker for confirming differentiation into myofibroblasts) induced by TGF-β1 on HFF-1 (human foreskin fibroblast, ATCC), NHLF (normal human lung fibroblast, Lonza), LX-2 (human hepatic stellate cells, Sigma), ARPE19 (human retinal pigment epithelial cell, ATCC), and KEL-FIB (Keloid fibroblast, ATCC) cells was to be observed.
Each cell was suspended in a DMEM medium containing 10% FBS and aliquoted at a concentration of 1×10^4 to 1.5 × 10 ^5 cells/well in a 4-well chamber slide (Nunc) and the compounds of Synthetic examples and TGF-β1 (both TGF β1 and TGF-β have the same meaning) were treated to prepare cells to be used for confirming αSMA expression. The confirmation of αSMA expression in the prepared cells was performed by immunocytochemistry as follows. For the cells, fixation with 4% paraformaldehyde for 10 minutes and permeabilization using 0.1% Triton x-100 were performed, and then processes of treating the primary antibody (anti-αSMA Ab, 1:200, at 4°C for 16 hours) and secondary antibody (Alexa-594 conjugated Ab, 1:800, at a room temperature for 1 hour) against αSMA were progressed in order, and then the expression level of αSMA was observed using a fluorescence microscope.
FIG. 3 observes the effect of treating various compounds of Synthetic examples by 10, 20 and 40 µM, after inducing αSMA expression by treatment of TGF-β1(10 ng/ml) into HFF cells.

IL-8 = test: Expression of IL-8 in pancreatic cancer associated fibroblasts (ELISA); type: cell-based, human; settings: P.CAF cells; compounds 10, 20, 30, 40, 60 and 80 µM for 48 hours; FIG. 6
Method: as §3, §4, §5

[3] = system: human foreskin fibroblasts (HFF-1, ATCC); test: Collagen gel contraction induced by TGF-β1; type: cell-based; settings: HFF-1 cells and bovine type I collagen; TGF-β1 (10 ng/ml); 72 hours; FIG. 7
Excerpt: In order to confirm the effect of the compounds of Synthetic examples on differentiation of fibroblasts into myofibroblasts, the inhibitory effect of the compounds of Synthetic examples on the phenomenon of contraction of gel induced by interaction of human foreskin fibroblasts (HFF-1, ATCC) and collagen was observed.
The mixed solution of the HFF-1 cells and collagen (bovine type I collagen) prepared at a concentration of 3×10^6 cells/ml was aliquoted in a 24 well plate, respectively, and then cultured under the condition of 5% CO2, 37 °C for 1 hour to induce gel polymerization. Then, after suspending the gel attached on the plate from the plate using a spoon, a medium comprising TGF-β1 and Synthetic example compounds was added to each well. After culturing for 72 hours, the Synthetic example compounds were treated by 10, 20, 30, 40, 60 and 80 µM to measure the size of the gel, and thereby, the degree of contraction of the gel by drug treatment was confirmed.

CN(Cc1ccccc1)C1CCc2nn(-c3ccccn3)c(O)c2C1 (stereo not shown) [Compound 1, 5-(Benzylmethylamino)-2-(pyridin-2-yl)-4,5,6,7-tetrahydro-2H-indazol-3-ol]
ROS production induced by PMA [1]: inhibited
IL-1β induced by LPS (IL-1β): effectively inhibited in a concentration-dependent manner
IL-6 expressed in P.CAF (IL-6): effectively inhibited
ROS production induced by PMA [2]: inhibited
increase in expression of αSMA induced by TGF-β1 (αSMA; ARPE19 cells): significantly inhibited
increase in expression of αSMA induced by TGF-β1 (αSMA; KEL-FIB cells): significantly inhibited
increase in expression of αSMA induced by TGF-β1 (αSMA; LX-2 cells): significantly inhibited
increase in expression of αSMA induced by TGF-β1 (αSMA; NHLF cells): significantly inhibited
IL-8 expressed in P.CAF (IL-8): effectively inhibited
contraction of the gel induced by TGF-β1 [3]: effectively inhibited
